Results on six compounds are retold here after patent US20140187556A1, “ANTI-AMYLOID COMPOUNDS AND METHODS” (Treventis Corporation, priority 2011, published 2014).

For data set [1], the system named is MDR1-MDCK cell monolayers. The experiment in a line: Blood-brain barrier penetration potential using MDR1-MDCK cell monolayers. Format: in vitro ADME. The settings on record: 5 μM, 120 min. From the text: (§1) This assay is used to determine the blood-brain barrier (BBB) penetration potential of a test compound using MDR1-MDCK cell monolayers. Further details on this method may be found in Taub M E, et al., Functional assessment of multiple Pglycoprotein (P-gp) probe substrates: Influence of cell line and modulator concentration on P-gp activity. Drug Metab Dispos. 2005 November; 33(11): 1679-87 and Wang Q, et al., Evaluation of the MDR-MDCK cell line as a permeability screen for the blood-brain barrier. Int J. Pharm. 2005 Jan. 20; 288(2):349-59; each of which is hereby incorporated by reference. Test compound was formulated in 300 μL of DMSO at 10 mM and diluted to 5 μM in HBSSg with maximum DMSO concentration not greater than 1%. Confluent monolayers of MDR1-MDCK cells, 7 to 11 days old, were used. A receiver well, having apical and basolateral sides at pH 7.4, was used with 1% BSA in modified Hanks buffer (HBSSg). Two monolayers were dosed with test compound in each direction (N=2). Apical side dosing was used for A-B assessment and basolateral side was used for B-A assessment; taken together, this information provides a bidirectional permeability potential. Apical and basolateral sides were sampled at 120 minutes and concentrations of test compound were determined using an LC-MS/MS method with a minimum 4 point calibration curve. Apparent permeability (Papp) in both directions (A-B and B-A) was calculated, as was the efflux ratio (Papp B-A)/(Papp A-B).

The nature of data set [2]: In vivo brain/plasma ratio determination in CD-1 mice. Conditions: for Mean brain/plasma ratio: 2 hours; for maximum brain/plasma ratio: day 5, once daily i.p. dosing. The method, then: Five groups of CD-1 mice (both sexes; individual weights 20 to 40 g) were dosed intraperitoneally with different doses of TRV 1067 (0, 3, 10, 30, and 100 mg/kg). DMSO (100%) was used as a vehicle. Animals had ad libitum access to rodent chow. Some animals were euthanized 2 hours after dosing on Day 1 and brains were harvested. Blood (0.15 mL) was collected 15 minutes after dosing and at sacrifice. The remaining animals were dosed once daily for 5 consecutive days. Blood samples were collected 15 minutes after dosing on Day 1. On Day 5, blood samples were collected 15 minutes and 2 hours after dosing and brains were harvested.
Standards were prepared in CD-1 mouse plasma containing sodium heparin as an anticoagulant and CD-1 mouse brain homogenate. An eight-point calibration curve was prepared at concentrations of 1000, 500, 100, 50, 10, 5, 1, and 0.5 ng/mL by serial dilution. Standard samples were treated identically to the study samples. Brain samples were homogenized with a Virsonic 100 ultrasonic homogenizer. Each brain sample was first weighed, and then an appropriate volume of 20:80 methanol:water was added to make a 4 mL/1 g sample. Samples were then homogenized on ice, and stored frozen until analysis. Plasma and brain homogenate samples were extracted via acetonitrile precipitation on a Tomtec Quadra 96-Model 320 liquid handling system in a 96-well plate format. A Perkin Elmer series 200 micropumps and LEAP Autosampler high-performance liquid chromatograph (HPLC) was used with a 0.2% formic acid/water/acetonitrile solvent system for separation purposes. The compound was quantitated using a PE Sciex API3000 mass spectrometer connected to the HPLC; negative polarity was used, with TRV 1067 analyzed using ion settings of 347.1 mass/charge ratio for the precursor and 212.1 for the product ions, respectively. Warfarin was used in negative polarity (307.1 precursor, 250.0 product) as an internal standard.

For data set [3], the target named is T1, Aβ40 (Homo sapiens, UniProt P05067).
T1 construct: pre-treated Aβ40 (40 μM in 20 mM Tris, pH 7.4)
T1 sequence (P05067 672-711 limits assumed): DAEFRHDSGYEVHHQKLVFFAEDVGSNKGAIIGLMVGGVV
The data set is described as follows: Thioflavin T (ThT) Aβ aggregation assay. It counts as biochemical. The settings on record: 20 μM Aβ40, 37 degrees C. Here is the method:
Aβ40 (1.0 mg) was pre-treated in a 1.5 mL microfuge tube with HFIP (1 mL) and sonicated for 20 min to disassemble any pre-formed Aβ aggregates. The HFIP was removed with a stream of argon and the Aβ dissolved in Tris base (5.8 mL, 20 mM, pH ˜10). The pH was adjusted to 7.4 with concentrated HCl (−10 μL) and the solution filtered using a syringe filter (0.2 μm) before being used.
The kinetic ThT assay for Aβ aggregation is similar to that of Chalifour et al (Chalifour et al, 2003, J. Biol. Chem. 278:34874-81). Briefly, pre-treated Aβ40 (40 μM in 20 mM Tris, pH 7.4), was diluted with an equal volume of 8 μM ThT in Tris (20 mM, pH 7.4, 300 mM NaCl). Aliquots of Aβ/ThT (200 μL) were added to wells of a black polystyrene 96-well plate, followed by 2 μL of a compound in DMSO (variable concentration), or DMSO alone (controls). Incubations were performed in triplicate and were taken to contain 20 μM Aβ, various concentration of compound in 20 mM Tris, pH 7.4, 150 mM NaCl, 1% DMSO. Plates were covered with clear polystyrene lids and incubated at 37 degrees C. in a Tecan Genios microplate reader. Fluorescence readings (λex=450 nm, λem=480 nm) were taken every 15 min., after first shaking at high intensity for 15 s and allowing to settle for 10 s before each reading. Active compounds attenuated the increase in fluorescence over time that occurred in controls.

A short description of data set [4]: Metabolic stability in mouse liver microsomes. Conditions: 1 μM compound, 0.5 mg/mL microsomal protein, 1 mM NADPH. It counts as in vitro ADME. Here is the method:
This assay is used to determine the percent remaining and intrinsic clearance of a test compound incubated with pooled mouse liver microsomes in the presence of NADPH. Further details on this method may be found in Jeffrey P, et al., Utility of metabolic stability screening: comparison of in vitro and in vivo clearance. enobiotica. 2001 August-September; 31(8-9):591-8 and Lin J H, et al., Role of pharmacokinetics and metabolism in drug discovery and development. Pharmacol Rev. 1997; 49(4):403-49; each of which is hereby incorporated by reference. Test compound was formulated in 300 μL of DMSO at 10 mM and was diluted to 1 μM with final concentration of organic solvent <0.25% for the experiment. Pooled liver microsomes were prepared from male mice, with 1 mM NADPH. Test compound was incubated at 37 degrees Celsius in buffer containing 0.5 mg/mL microsomal protein; the reaction was initiated by adding cofactors and sampled at 0, 10, 20, 30, and 60 minutes. A positive control (5 μM testosterone) was incubated and initiated in parallel for quality control. Samples were analyzed using an LTQ-Orbitrap XL mass spectrometer; HRMS was used to determine the peak area response ratio (peak area corresponding to test compound or control divided by that of an analytical internal standard) without running a standard curve.
Results were reported for selected compounds in the table of Example 1, as % test compound remaining after 60 minutes. Compounds which have less than about 5% remaining are not considered to be metabolically stable in mouse liver microsomes, while compounds with more than about 5% remaining are considered to be metabolically stable in mouse liver microsomes.
For orientation: Liver microsomes are a subcellular fraction often used to study metabolism.

The target of data set [5] is Tau441 (Homo sapiens, UniProt P10636). The data set is described as follows: Thioflavin S (ThS) tau aggregation assay. It counts as biochemical. Conditions: FIG. 1; for inhibition at 20 µM: 20 μM compound; for IC50: read-out: tau aggregation IC50 (suggested by inhibition at 20 μM). The method, then: Analogous to the method of Example 1, the ability of compounds to inhibit the aggregation of tau was performed by substituting […] with tau and Thioflavin T with Thioflavin S.
Chain of Tau441 (P10636 1-441 isoform P10636-8): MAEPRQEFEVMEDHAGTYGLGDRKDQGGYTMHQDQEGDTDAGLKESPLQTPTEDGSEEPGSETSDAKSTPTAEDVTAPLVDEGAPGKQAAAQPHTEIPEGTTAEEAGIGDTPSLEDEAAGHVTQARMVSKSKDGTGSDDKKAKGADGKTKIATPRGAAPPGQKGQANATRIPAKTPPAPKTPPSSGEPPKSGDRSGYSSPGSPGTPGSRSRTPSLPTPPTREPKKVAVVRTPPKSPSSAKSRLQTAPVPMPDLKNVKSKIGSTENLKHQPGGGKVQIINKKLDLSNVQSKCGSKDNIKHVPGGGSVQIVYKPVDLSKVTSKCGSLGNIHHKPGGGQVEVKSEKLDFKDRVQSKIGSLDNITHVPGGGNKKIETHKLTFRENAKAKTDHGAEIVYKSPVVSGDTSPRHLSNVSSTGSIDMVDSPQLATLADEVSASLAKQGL

Data set [6] can be described thus: Blood-brain barrier penetration potential using MDR1-MDCK cell monolayers. Format: in vitro ADME. The settings on record: dog; for Papp A→B at 120 min, 5 µM: MDCK-MDR1, apical dosing, pH 7.4, read-out: Papp A-B × 10^−6 cm/s; for Papp B→A at 120 min, 5 µM: MDCK-MDR1, basolateral dosing, pH 7.4, read-out: Papp B-A × 10^−6 cm/s; for efflux ratio at 120 min, 5 µM: MDCK-MDR1, pH 7.4, read-out: Efflux ratio (Papp B-A)/(Papp A-B).
Text: as §1

Data set [7] has as its target alpha-synuclein (Homo sapiens, UniProt P37840). The experiment in a line: alpha-synuclein aggregation assay (ThT, analogous to Example 1). It counts as biochemical. Conditions: 10 μM compound. Here is the method: Analogous to the method of Example 1, the ability of compounds to inhibit the aggregation of alpha-synuclein was performed by substituting Aβ with alpha-synuclein.

The IC50 is the concentration that inhibits the measured activity by half. A word on the inhibition: it is the change of the read-out against control, counted positive when it falls.

Turning to `O=C(O)c1cccc(-c2ccc([N+](=O)[O-])c(NCc3ccccc3)c2)c1` [TRV 1067, 3′-(benzylamino)-4′-nitrophenyl-3-carboxylic acid], the “Efflux ratio (Papp B-A)/(Papp A-B)” value in data set [1] stood at 1.8. Moreover, in data set [1] (apical dosing, pH 7.4), the “Papp A-B × 10^−6 cm/s” value is on record as 42.1 10^−6 cm/s. Moreover, the “Papp B-A × 10^−6 cm/s” value in data set [1] (basolateral dosing, pH 7.4) is 74.9 10^−6 cm/s. Besides, in data set [2] (CD-1 mice, 3-100 mg/kg i.p.), the “blood-brain barrier crossing in vivo” value is on record as “did not appreciably cross the blood-brain barrier”. Moreover, the Mean brain/plasma ratio result in data set [2] (female CD-1 mice, Day 1, 3 mg/kg intraperitoneally) is given as “too low to determine”; in data set [2] (female CD-1 mice, Day 1, 100 mg/kg intraperitoneally), 0.051; in data set [2] (male CD-1 mice, Day 1, 3 mg/kg intraperitoneally) it was “too low to determine”; in data set [2] (male CD-1 mice, Day 1, 100 mg/kg intraperitoneally), 0.168. Moreover, the maximum brain/plasma ratio was 0.067 in data set [2] (female CD-1 mice) and 0.256 in data set [2] (male CD-1 mice).

In data set [3], `O=C(c1ccccc1)N1CCN(c2ccc(F)c(Nc3ccccc3)c2)CC1` [TRV 1095, (4-(4-fluoro-3-(phenylamino)phenyl)piperazin-1-yl)(phenyl)methanone] returned an IC50 of 15.9 ± 7.8 µM. The “Stability in mouse liver microsomes (% test compound remaining after 60 min)” value in data set [4] is listed as less than 1.0%. In data set [5], the inhibition at 20 µM was approximately 20% and the IC50 is more than 20 µM.

In turn, `O=[N+]([O-])c1ccc(-c2cccc(-c3nnn[nH]3)c2)cc1NCc1ccccc1` [TRV 1120, N-benzyl-4-nitro-3′-(1H-tetrazol-5-yl)-[1,1′-biphenyl]-3-amine] returned a 50% inhibitory concentration (IC50) in data set [3] of 1.34 ± 0.22 µM. Moreover, the “Stability in mouse liver microsomes (% test compound remaining after 60 min)” value in data set [4] came to 60%. For the same compound, in data set [6], the Papp A→B at 120 min, 5 µM amounted to 38.3 ×10⁻⁶ cm/s; the Papp B→A at 120 min, 5 µM was found to be 47.4 ×10⁻⁶ cm/s; the efflux ratio at 120 min, 5 µM stood at 1.2. Also, the “inhibition of alpha-synuclein aggregation” value in data set [7] was “inhibit alpha-synuclein aggregation at 10 μM”.

Consider `NS(=O)(=O)c1cccc(-c2ccc([N+](=O)[O-])c(NCc3ccccc3)c2)c1` [TRV 1122, 3′-(benzylamino)-4′-nitro-[1,1′-biphenyl]-3-sulfonamide], for which the IC50 in data set [3] was 14.1 ± 3.07 µM. For the same compound, the “Stability in mouse liver microsomes (% test compound remaining after 60 min)” value in data set [4] worked out at 1.5%. For the same compound, in data set [6], the Papp A→B at 120 min, 5 µM came to 27.5 ×10⁻⁶ cm/s; the Papp B→A at 120 min, 5 µM came out at 52.5 ×10⁻⁶ cm/s; the efflux ratio at 120 min, 5 µM was 1.9.

`O=[N+]([O-])c1ccc(-c2ccc(-c3nn[nH]n3)cc2)cc1NCc1ccccc1` [TRV 1126, N-benzyl-4-nitro-4′-(2H-tetrazol-5-yl)-[1,1′-biphenyl]-3-amine]: the IC50 in data set [3] came out at 1.1 ± 0.33 µM. Also, the “Stability in mouse liver microsomes (% test compound remaining after 60 min)” value in data set [4] stood at 41%. Further, in data set [6], the Papp A→B at 120 min, 5 µM worked out at 34.1 ×10⁻⁶ cm/s; the Papp B→A at 120 min, 5 µM was 47.8 ×10⁻⁶ cm/s; the efflux ratio at 120 min, 5 µM was found to be 1.4.

In the case of `O=C(c1ccccc1)N1CCN(c2ccc(C(F)(F)F)c(N3CCCC3)c2)CC1` [TRV 1158, phenyl(4-(3-(pyrrolidin-1-yl)-4-(trifluoromethyl)phenyl)piperazin-1-yl)methanone], in data set [3], inhibition was half-maximal at 42.02 ± 0.12 µM (IC50). Moreover, in data set [5], the inhibition at 20 µM is approximately 20% and the IC50 was more than 20 µM.
